From PMC6896172, “Successful Targeting of the Warburg Effect in Prostate Cancer by Glucose-Conjugated 1,4-Naphthoquinones” (Cancers, 2019)

Assays:
[1] = system: human prostate cancer cell lines and human non-cancer cell lines; experiment: MTT cytotoxicity profile in five prostate cancer versus five non-cancer cell lines; format: cell-based; settings: 48 h
Excerpt: (§1) For general experiments human prostate cancer cell lines PC-3 and DU145 (docetaxel-resistant, androgen-independent, AR-FL(−), AR-V7(−)), 22Rv1 and VCaP (docetaxel-sensitive, androgen-independent, AR-FL(+), AR-V7(+), and LNCaP (docetaxel sensitive, androgen-dependent, AR-FL(+), AR-V7(−) were used. PC-3, 22Rv1, LNCaP cells as well as the human prostate non-cancer cells PNT2 and RWPE-1 were purchased from ATCC (Manassas, VA, USA). VCaP were purchased from ECACC (Salisbury, UK). The human fibroblast cell line MRC-9, the human embryonic kidney cell line HEK 293T, as well as the human umbilical vascular endothelial cell line HUVEC were kindly donated by Prof. Dr. Dr. med. Sonja Loges (University Medical Center Hamburg-Eppendorf, Hamburg, Germany). Cells were cultured according to the manufacturers’ instructions and were recently authenticated by a commercial service (Multiplexion, Heidelberg, Germany). Culture conditions are described in the Supplementary Information.
MTT (3-(4,5-dimethylthiazol-2-yl)-2,5-diphenyltetrazolium bromide) cytotoxicity assay was used for the evaluation of cytotoxicity of the compounds or their combinations. Experiments were performed as previously described. […]

[2] = system: PNT2 cells; experiment: MTT cytotoxicity assay in PNT2 cells; format: cell-based, human; settings: 48 h of treatment
Excerpt: as §1
(§2) MTT (3-(4,5-dimethylthiazol-2-yl)-2,5-diphenyltetrazolium bromide) cytotoxicity assay was used for the evaluation of cytotoxicity of the compounds or their combinations. Experiments were performed as previously described. In brief, 6000 cells/well were seeded in 96-well plate, incubated overnight, and treated with the drugs in 100 µL/well of 10% FBS/RPMI media containing 2 g/L of D-(+)-glucose for 48 h, unless otherwise stated. For 2 h treatment the cells were treated with the drugs for 2 h in the culture media, then the media was exchanged to fresh drug-free media (100 µL/well) containing MTT reagent and the further steps were performed as previously described.
(§3) Table S4. Cytotoxic activity of the synthesized compounds. Cytotoxicity was determined in human prostate cancer PC-3 cells versus human prostate non-cancer
(§4) PNT2 cells after 48 h of treatment, as well as its ratio. IC50 was evaluated using MTT assay. SI–selectivity index. #–the IC50s in both cell lines were >100 µM.
(§5) Anisomycin was used as a reference substance.
(§6) No Formula IC50(PC-3) IC50(PNT2) SI […]

[3] = system: PC-3 cells; experiment: MTT cytotoxicity assay in PC-3 cells; format: cell-based, human; settings: for IC50: 48 h of treatment; for SI [IC50(PNT2) / IC50(PC-3)]: ratio of IC50 in PNT2 cells to IC50 in PC-3 cells, 48 h
Excerpt: as §1, §2, §3, §4, §5, §6

[4] = system: 22Rv1 cells; experiment: MTT cytotoxicity assay in 22Rv1 cells; format: cell-based, human; settings: for IC50: Homo sapiens
Method: (§7) Dr. Dr. med. Sonja Loges (University Medical Center Hamburg-Eppendorf, Hamburg, Germany). Cells were cultured according to the manufacturers’ instructions and were recently authenticated by a commercial service (Multiplexion, Heidelberg, Germany). Culture conditions are described in the Supplementary Information.
as §2

[5] = system: LNCaP cells; experiment: MTT cytotoxicity assay in LNCaP cells; format: cell-based; settings: Homo sapiens, 48 h of treatment, cancer
Method: as §7, §2

[6] = system: 22Rv1 cells; experiment: Mitochondrial membrane potential assay (JC-1, flow cytometry); format: cell-based, human; settings: 2 h of treatment
Method: The loss of mitochondrial membrane potential (Δψ) was measured by flow cytometry technique using staining with Δψ-sensitive dye JC-1 (5,5′,6,6′-tetrachloro-1,1′,3,3′-tetraethylimidacarbocyanine iodide). Cells were seeded in 12-well plates (100 × 10^3 cells/well in 1 mL/well) and incubated overnight. Then, the media was changed to PBS (1 mL/well) containing the investigational drugs. After 2 h of incubation (37 °C, 5% CO2, in the dark) the cells were trypsinized, pelleted, resuspended in 100 µL of 2 µM JC-1/PBS, incubated for 1 h (37 °C, 5% CO2, in the dark) and Δψ loss was measured by flow cytometry technique.

[7] = system: 22Rv1 cells; experiment: Trypan blue exclusion viability assay; format: cell-based; settings: Homo sapiens, 48 h of treatment
Method: The in vitro effect of the drugs on cell viability and proliferation was evaluated using trypan blue exclusion assay as described before with minor modifications. In brief, cells (0.2 × 10^6 cells/well) were seeded in 12-well plates, incubated overnight, the media was replaced with fresh media (1 mL/well) and treated with the drugs for 48 h. Cells were harvested by trypsination and the viability was measured using trypan blue staining and Beckman Coulter Vi-CELL (Beckman Coulter, Krefeld, Germany).

[8] = system: 22Rv1 cells; experiment: Cell fractionation followed by Western blotting; format: cell-based, human; settings: 48 h
Method: (§8) Preparation of protein extracts for western blotting was performed as described previously. In brief, for western blotting, 1 × 10^6 cells/well were seeded in Petri dishes (ø 6 cm TC Dish (Sarstedt, Numbrecht, Germany) in 5 mL/dish), incubated overnight and treated with drugs in 5 mL/dish for an indicated time. Cells were harvested using a cell scraper, pelleted, and resuspended in the lysis buffer containing protease and phosphatase inhibitors. Further sample preparation and western blotting were performed as previously described with slight modifications. Relative optical density of the detected bands was quantified with Quantity One 4.6 software (Bio-Rad, Hercules, CA, USA). The primary and secondary antibodies used are listed in the Supplementary Information.
22Rv1 cells were seeded in T75 culture bottles (4 × 10^6 cells/bottle in 20 mL/bottle), treated for 48 h and harvested by scratching. The further separation of cytosolic, mitochondrial and nuclear fractions was performed using the Cell Fractionation Kit ab109719 (abcam, Cambridge, MA) as previously described. Mitochondrial and cytosolic fractions were concentrated using Amicon® Ultra-2 Centrifugal Filter device (Cat. No. UFC203024, Merck, Darmstadt, Germany). Nuclear fractions were additionally homogenized using QIAshedder kit (QIAGEN, Hilden, Germany).

[9] = system: 22Rv1 cells; experiment: Intracellular ROS (CM-H2DCFDA, flow cytometry); format: cell-based, human; settings: 2 h of treatment
Method: Intracellular ROS levels were estimated using the ROS-sensitive CM-H2DCFDA reagent (Cat. No. C6827, Molecular probes, Invitrogen, Eugene, OR, USA) as described before. In brief, 22Rv1 cells were seeded in 12-well plates (0.2 × 10^6 cells/well in 1 mL/well of media) and incubated overnight. The media was changed into freshly made pre-warmed 4 µM CM-H2DCFDA/PBS (0.5 mL/well) and incubated for 30 min (37 °C, 5% CO2, in the dark). Then, the CM-H2DCFDA solution was exchanged with 1 mL/well of pre-warmed PBS containing the drugs or H2O2 (positive control) at the indicated concentrations. After 2 h of incubation the cells were trypsinized and immediately analyzed by flow cytometry technique according to the manufacture’s protocols.

[10] = system: VCaP cells; experiment: MTT cytotoxicity assay in VCaP cells; format: cell-based; settings: Homo sapiens, 48 h of treatment, cancer
Method: as §7, §2

[11] = system: RWPE-1 cells; experiment: MTT cytotoxicity assay in RWPE-1 cells; format: cell-based; settings: Homo sapiens, 48 h of treatment, non-cancer
Method: as §7, §2

[12] = system: HEK293 cells; experiment: MTT cytotoxicity assay in HEK293 cells; format: cell-based; settings: Homo sapiens, 48 h of treatment, non-cancer
Method: as §7, §2

[13] = system: DU145 cells; experiment: MTT cytotoxicity assay in DU145 cells; format: cell-based; settings: Homo sapiens, DU-145, 48 h of treatment, cancer
Method: as §7, §2

[14] = system: 22Rv1 cells; experiment: Western blotting of treated cells; format: cell-based, human
Method: as §8

[15] = system: MRC-9 cells; experiment: MTT cytotoxicity assay in MRC-9 cells; format: cell-based; settings: Homo sapiens, MRC9, 48 h of treatment, non-cancer
Method: as §7, §2

[16] = system: HUVEC cells; experiment: MTT cytotoxicity assay in HUVEC cells; format: cell-based; settings: Homo sapiens, 48 h of treatment, non-cancer
Method: as §7, §2

[17] = system: 22Rv1 cells; experiment: Colony formation assay; format: cell-based, human; settings: 22Rv1 cells treated with non-cytotoxic concentrations for 48 h
Method: Colony formation assays were performed as described before. In brief, cells were treated with the drugs for 48 h and then 100 alive cells were plated into each well of 6-well plates and incubated for 10 days. Surviving colonies were fixed, stained with Giemsa solution and counted.

SMILES: COc1ccc(C[C@H]2NC[C@H](O)[C@H]2OC(C)=O)cc1 [Anisomycin, anisomycin, reference compound]
- selectivity to prostate cancer cell lines versus non-cancer cell lines [1]: no selectivity was found
- IC50 [2]: 0.7 µM
- IC50 [3]: 1.49 µM
- SI [IC50(PNT2) / IC50(PC-3)] [3]: 0.47

SMILES: CC1(C)OC2OC(C(O)COC3=CC(=O)c4c(O)cccc4C3=O)C(O)C2O1 (centres unmarked) [Compound 7]
- effect of N-acetyl-L-cysteine pre-treatment on cytotoxic activity ([4]; 22Rv1 cells, 1 mM NaC 1 h then co-treatment 48 h, FBS- and glucose-free RPMI): significantly suppressed the cytotoxic activity
- IC50 ([4]; 22Rv1, 48 h of treatment, cancer, read-out: IC50 (22Rv1)): 1.61 µM
- IC50 ([4]; 22Rv1 cells, 2 h treatment, read-out: IC50 after 2 h of treatment): 24.2 µM
- IC50 [5]: 2190 nM
- effect on ΔΨm [6]: quick ΔΨm loss
- IC50 [7]: 3.49 µM
- release of mitochondrial proteins AIF and cytochrome C [8]: release of mitochondrial proteins
- effect on ROS level [9]: remarkable and significant increase of the ROS level
- IC50 [10]: 8.06 µM
- IC50 [11]: 3.39 µM
- IC50 ([2]; Homo sapiens, PNT2, 48 h): 7.29 µM
- IC50 [12]: 3.57 µM
- IC50 [13]: 840 nM
- IC50 ([3]; Homo sapiens, PC-3, 48 h): 6.1 µM
- SI [IC50(PNT2) / IC50(PC-3)] [3]: 1.20
- cleavage of caspase-9 ([14]; 2 h and 48 h treatment): observed already after 2 h
- AR-FL and AR-V7 expression ([14]; 48 h treatment): downregulated both, AR full length (AR-FL) and AR-V7
- Bax and Bcl-2 expression ([14]; 48 h treatment): up-regulation of Bax and down-regulation of Bcl-2
- LC3B-II and SQSTM1 levels (autophagy markers) ([14]; pre-cytotoxic and cytotoxic concentrations, 48 h): accumulation of both, LC3B-II and SQSTM1
- IC50 [15]: 5.77 µM
- IC50 [16]: 9.04 µM
- cancer cell colony formation [17]: suppress cancer cell colony formation
